Laboratory results: PMC2796602 (Journal of the American Chemical Society, 2009)
Where a name gives a salt, the structure may show the parent alone. Values belong to the molecule of their own block, whether it stands above or below them. No end group written: not given here.

Assays:
[1] = target: GST-tagged CH1 domain of human p300 (aa residues 323-423) (Homo sapiens, UniProt Q09472); test: SPR binding to immobilized p300-CH1-GST
[2] = target: p300-CH1-GST fusion (Homo sapiens, UniProt Q09472); test: CD spectroscopy of p300-CH1-GST fold; conditions: CD spectra
p300-CH1-GST fusion, sequence (Q09472 323-423): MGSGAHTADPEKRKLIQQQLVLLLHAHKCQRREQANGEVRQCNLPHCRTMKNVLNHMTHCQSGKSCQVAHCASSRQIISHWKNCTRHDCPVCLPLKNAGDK

[3] = target: p300-CH1-GST/HIF-1α C-TAD complex (Homo sapiens, UniProt Q09472); test: Fluorescence polarization competition assay; assay type: binding
p300-CH1-GST/HIF-1α C-TAD complex, sequence (Q09472 323-423, one chain of several): as the sequence (Q09472 323-423) above

[4] = test system: MCF7 cells; test: Cell viability assay; assay type: cell-based; conditions: Homo sapiens, MCF7, 24 h
[5] = test system: HIF-1α levels in cells; test: Western blot of HIF-1α levels; assay type: cell-based, human; conditions: 200 nM, 300 μM DFO
[6] = test system: mice; conditions: cited from earlier work
[7] = test system: hypoxia-induced gene expression in MCF7 cells; test: Gene expression profiling with Affymetrix Human Gene ST 1.0 microarrays; assay type: cell-based; conditions: 300 μM DFO
[8] = target: p300-CH1-GST fusion protein (GST-tagged CH1 domain of human p300, aa residues 323-423) (human, UniProt Q09472 323-423); test: fluorescence polarisation
p300-CH1-GST fusion protein (GST-tagged CH1 domain of human p300, aa residues 323-423), sequence (Q09472 323-423): as above

GST-tagged CH1 domain of human p300 (aa residues 323-423), sequence (Q09472 323-423): as above

Molecule: CN1C(=O)[C@]2(Cc3cn([C@]45C[C@@]67SS[C@@](CO)(C(=O)N6[C@H]4Nc4ccccc45)N(C)C7=O)c4ccccc34)SS[C@@]1(CO)C(=O)N2C [compound 2, chetomin]
Kd [1]: 540 nM
off-rate (Kd) ([1]; SPR, 100 μM DTT): 0.0033 s⁻¹
concentration causing structural changes / unfolding of p300-CH1-GST [2]: 1 µM
IC50 [3]: 540 ± 180 nM
GI50 [4]: 180 ± 40 nM
levels of HIF-1α in hypoxic cells [5]: remained constant
effect on vascularization in mice [6]: inhibit vascularization in mice

Molecule: CC(=O)N(O)CCCCCNC(=O)CCC(=O)N(O)CCCCCNC(=O)CCC(=O)N(O)CCCCCN [DFO, desferrioxamine mesylate]
number of transcripts affected (2-fold or more) by DFO treatment alone [7]: 580
number of transcripts induced by at least 4-fold (P < 0.01) [7]: 43

binding result [8]: binds
Molecule: SMDESGLPQLTSYDCEVNAPIQGSRNLLQGEELLRALDQVN (peptide, UniProt Q16665 786-826, looked up, also: fluorescein label, position not given here) [fluorescein-labeled C-TAD domain of human HIF-1α (residues 786-826)]
